40 compounds from patent US11033539B2, “Compounds of formulas (VII), (VIII), (IX), (XI), (XII), (XIII), and (XIV) as muscarinic receptor 4(M4) antagonists for treating neurological diseases” (Neurocrine Biosciences, Inc., priority 2015, dated 2021) can be followed below.

The target of this assay is human M4 receptor (Homo sapiens (Human), UniProt P08173). Kind of assay: Radioligand (tritiated N-methylscopolamine) binding assay, M4. The following applies: Ki against the M4 receptor; membranes from CHO cells expressing human M4; tritiated N-methylscopolamine 1.5 nM; read-out: Ki. The gist of the method:
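CHO membranes; 1.5 nM radioligand; 12-point compound dose-response, 10 μM to […]; HEPES/NaCl/MgCl2/EDTA buffer pH 7.4; 90 min, 37 °C. PEI-treated glass fiber filtration, radioactivity counting. Ki from inhibition of binding.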

Chain of human M4 receptor (P08173 whole entry): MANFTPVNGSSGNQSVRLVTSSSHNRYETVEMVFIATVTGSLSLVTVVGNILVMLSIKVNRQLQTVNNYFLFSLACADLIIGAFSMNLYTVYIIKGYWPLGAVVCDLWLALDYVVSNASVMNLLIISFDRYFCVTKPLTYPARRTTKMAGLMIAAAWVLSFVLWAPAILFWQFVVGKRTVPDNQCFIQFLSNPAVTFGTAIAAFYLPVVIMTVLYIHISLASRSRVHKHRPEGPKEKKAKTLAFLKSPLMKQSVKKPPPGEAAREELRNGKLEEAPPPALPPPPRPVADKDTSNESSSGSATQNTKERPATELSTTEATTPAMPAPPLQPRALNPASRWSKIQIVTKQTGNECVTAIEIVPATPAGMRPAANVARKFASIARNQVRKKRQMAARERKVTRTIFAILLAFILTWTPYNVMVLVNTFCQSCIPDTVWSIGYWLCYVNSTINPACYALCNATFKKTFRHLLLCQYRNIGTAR

For the compound `Cc1c(C(=O)NCCC2CCN(Cc3ccccc3)CC2)cnc2cc(-c3cccnc3F)nn12` [18-18], the Ki lay in the range of 100 to 1000 nM.

Consider `N#Cc1ccnc(N2CCC(C(=O)NCCC3CCN(Cc4ccccc4)CC3)CC2)c1` [10-66, N-[2-(1-benzylpiperidin-4-yl)ethyl]-1-(4-cyanopyridin-2-yl)piperidine-4-carboxamide], for which the Ki is 100 to 1000 nM.

Turning to `O=C(NCCC1CCN(Cc2ccccc2)CC1)N1CCC(O)(c2ccc(Cl)cc2)CC1` [8-23, N-[2-(1-benzylpiperidin-4-yl)ethyl]-4-(4-chlorophenyl)-4-hydroxypiperidine-1-carboxamide], the Ki was 100 to 1000 nM.

`Cc1cc(C(=O)NCC(C)C)nc(N2CCN(C(=O)NCCC3CCN(Cc4ccccc4)CC3)[C@H](C)C2)n1` [27-11]: the inhibitory constant (Ki) fell in the range of 10 to 100 nM.

As for `O=C(NCCC1CCN(Cc2ccccc2)CC1)C1CCN(c2ncc(Br)cn2)CC1` [9-37, N-[2-(1-benzylpiperidin-4-yl)ethyl]-1-(5-bromopyrimidin-2-yl)piperidine-4-carboxamide], the Ki lay in the range of 100 to 1000 nM.

In the case of `Cc1nc(C(=O)NCCC2CCN(Cc3ccccc3)CC2)cn1-c1ccc(C#N)cn1` [9-74, N-[2-(1-benzylpiperidin-4-yl)ethyl]-1-(5-cyanopyridin-2-yl)-2-methyl-1H-imidazole-4-carboxamide], the Ki is 100 to 1000 nM.

Take `O=C(NCCC1CCN(Cc2ccccc2)CC1)c1ccc(-c2ccc(C(F)(F)F)cc2)cc1` [9-16, N-[2-(1-benzylpiperidin-4-yl)ethyl]-4-[4-(trifluoromethyl)phenyl]benzamide]: the Ki lay in the range of 10 to 100 nM.

For `Cc1c(C(=O)NCCC2CCN(Cc3ccccn3)CC2)cnc2cc(-c3cccc(C(F)(F)F)c3)nn12` [19-6], the Ki is 100 to 1000 nM.

Turning to `N#Cc1ccc(N2CCC(C(=O)NCCC3CCN(Cc4ccc5[nH]ccc5c4)CC3)CC2)nc1` [6-11, 1-(5-cyanopyridin-2-yl)-N-{2-[1-(1H-indol-5-ylmethyl)piperidin-4-yl]ethyl}piperidine-4-carboxamide], the Ki lay in the range of 10 to 100 nM.

On to `CCC(C)NC(=O)c1cnc(N2C[C@@H](C)N(C(=O)NCCC3CCN(Cc4ccccc4)CC3)[C@@H](C)C2)nc1` (stereo partly shown) [27-8], for which the inhibition constant (Ki) fell in the range of 100 to 1000 nM.

For `CN(CCNC(=O)c1ccc(-c2ccccc2)cc1)[C@@H]1CCN(Cc2ccccc2)C1` [9-38, N-(2-{[(3R)-1-benzylpyrrolidin-3-yl](methyl)amino}ethyl)-4-phenylbenzamide], the Ki fell in the range of 100 to 1000 nM.

Take `C[C@@H]1CN(c2ncc(C(F)(F)F)cn2)CCN1C(=O)NCCC1CCN(Cc2ccccn2)CC1` [6-33, (2R)-2-methyl-N-{2-[1-(pyridin-2-ylmethyl)piperidin-4-yl]ethyl}-4-[5-(trifluoromethyl)pyrimidin-2-yl]piperazine-1-carboxamide]: the Ki fell in the range of 100 to 1000 nM.

In the case of `O=C(NCCC1CCN(Cc2ccccc2)CC1)N1CCN(c2ccc(F)cc2)CC1` [8-35, N-[2-(1-benzylpiperidin-4-yl)ethyl]-4-(4-fluorophenyl)piperazine-1-carboxamide], the Ki fell in the range of 100 to 1000 nM.

In the case of `COC(=O)c1ccc(-c2ccc(C(=O)NCCC3CCN(Cc4ccccc4)CC3)cc2)cc1` [9-14, methyl 4-(4-{[2-(1-benzylpiperidin-4-yl)ethyl]carbamoyl}phenyl)benzoate], the Ki lay in the range of 10 to 100 nM.

Consider `CN(CCNC(=O)C1CCN(c2ccc(OC(F)(F)F)cc2)CC1)[C@H]1CCN(Cc2ccccc2)C1` [9-17, N-(2-{[(3S)-1-benzylpyrrolidin-3-yl](methyl)amino}ethyl)-1-[4-(trifluoromethoxy)phenyl]piperidine-4-carboxamide], for which the Ki was in the range of 10 to 100 nM.

As to `C[C@@H]1CN(c2cnc(C(F)(F)F)nc2)C[C@H](C)N1C(=O)NCCC1CCN(Cc2ccccc2F)CC1` [6-52, (2R,6S)-N-(2-{1-[(2-fluorophenyl)methyl]piperidin-4-yl}ethyl)-2,6-dimethyl-4-[2-(trifluoromethyl)pyrimidin-5-yl]piperazine-1-carboxamide], the Ki was 10 to 100 nM.

As for `C[C@@H]1CN(c2cc(F)c(F)c(F)c2)CCN1C(=O)NCCN(C)[C@@H]1C[C@H](CO)N(Cc2ccccc2)C1` [7-13, (2R)-N-(2-{[(3R,5R)-1-benzyl-5-(hydroxymethyl)pyrrolidin-3-yl](methyl)amino}ethyl)-2-methyl-4-(3,4,5-trifluorophenyl)piperazine-1-carboxamide], the inhibition constant Ki is 100 to 1000 nM.

With `N#Cc1cc(F)cc(N2CCN(C(=O)NCCC3CCN(Cc4ccccc4)CC3)CC2)c1` [8-18, N-[2-(1-benzylpiperidin-4-yl)ethyl]-4-(3-cyano-5-fluorophenyl)piperazine-1-carboxamide], the Ki was 10 to 100 nM.

In the case of `N#Cc1ccc(N2CCC(C(=O)NCCC3CCN(Cc4ccccc4)CC3)CC2)nc1` [9-47, N-[2-(1-benzylpiperidin-4-yl)ethyl]-1-(5-cyanopyridin-2-yl)piperidine-4-carboxamide], the inhibition constant (Ki) lay in the range of 100 to 1000 nM.

In the case of `N#Cc1cc(F)cc(N2CCN(C(=O)OCCC3CCN(Cc4ccccc4)CC3)CC2)c1` [12-9, 2-(1-benzylpiperidin-4-yl)ethyl 4-(3-cyano-5-fluorophenyl)piperazine-1-carboxylate], the Ki was in the range of 100 to 1000 nM.

As for `C[C@@H]1CN(c2cc(F)c(F)c(F)c2)CCN1C(=O)NCCC1(CO)CCN(Cc2ccccc2)CC1` [3-20, (2R)-N-{2-[1-benzyl-4-(hydroxymethyl)piperidin-4-yl]ethyl}-2-methyl-4-(3,4,5-trifluorophenyl)piperazine-1-carboxamide], the Ki lay within 10 to 100 nM.

For `C[C@@H]1CN(c2cc(F)c(F)c(F)c2)CCN1C(=O)NCCC1CCN(Cc2cccc(F)c2F)CC1` [6-17, (2R)-N-(2-{1-[(2,3-difluorophenyl)methyl]piperidin-4-yl}ethyl)-2-methyl-4-(3,4,5-trifluorophenyl)piperazine-1-carboxamide], the Ki is 10 to 100 nM.

Turning to `O=C(NCCC1CCN(Cc2ccccc2)CC1)N1CCN(c2cccc(O)c2)CC1` [8-28, N-[2-(1-benzylpiperidin-4-yl)ethyl]-4-(3-hydroxyphenyl)piperazine-1-carboxamide], the Ki fell in the range of 100 to 1000 nM.

In the case of `COc1cc(N2CCN(C(=O)NCCC3CCN(Cc4ccccc4)CC3)[C@H](C)C2)ccn1` [22-16], the Ki is 10 to 100 nM.

For `Cc1c(C(=O)NCCC2CCN(Cc3ccccc3)CC2)cnc2cc(-c3ccc(Cl)cc3)nn12` [17-4, N-[2-(1-benzylpiperidin-4-yl)ethyl]-2-(4-chlorophenyl)-7-methylpyrazolo[1,5-a]pyrimidine-6-carboxamide], the inhibitory constant (Ki) was in the range of 10 to 100 nM.

As for `O=C(NCCC1CCN(Cc2cccc(O)c2)CC1)c1ccc(Oc2ccccc2)cc1` [11-13, N-(2-{1-[(3-hydroxyphenyl)methyl]piperidin-4-yl}ethyl)-4-phenoxybenzamide], the Ki lay within 100 to 1000 nM.

`Cc1c(C(=O)NCCC2CCN(Cc3ccccc3)CC2)cnc2cc(-c3ccc(F)nc3)nn12` [18-15]: the Ki is 100 to 1000 nM.

As to `Cc1c(C(=O)NCCC2CCN(Cc3ccccc3)CC2)cnc2cc(-c3ccc(OC(F)(F)F)cc3)nn12` [18-13], the Ki lay in the range of 10 to 100 nM.

As for `N#Cc1ccc(N2CCN(C(=O)NCCC3CCN(Cc4ccccc4)CC3)CC2)nc1` [8-45, N-[2-(1-benzylpiperidin-4-yl)ethyl]-4-(5-cyanopyridin-2-yl)piperazine-1-carboxamide], the Ki is 100 to 1000 nM.

Turning to `O=C(C1CCN(c2ccc(OC(F)(F)F)cc2)CC1)N(CCO)CCC1CCN(Cc2ccccc2)CC1` [9-3, N-[2-(1-benzylpiperidin-4-yl)ethyl]-N-(2-hydroxyethyl)-1-[4-(trifluoromethoxy)phenyl]piperidine-4-carboxamide], the inhibition constant (Ki) is 100 to 1000 nM.

Consider `N#Cc1cc(F)ccc1N1CCC(C(=O)NCCC2CCN(Cc3ccccc3)CC2)CC1` [10-69, N-[2-(1-benzylpiperidin-4-yl)ethyl]-1-(2-cyano-4-fluorophenyl)piperidine-4-carboxamide], for which the Ki was in the range of 100 to 1000 nM.

On to `C[C@@H]1CN(c2ncc(C#N)c(N(C)C)n2)CCN1C(=O)NCCC1CCN(Cc2ccccc2)CC1` [5-15, (2R)-N-[2-(1-benzylpiperidin-4-yl)ethyl]-4-[5-cyano-4-(dimethylamino)pyrimidin-2-yl]-2-methylpiperazine-1-carboxamide], for which the Ki was 10 to 100 nM.

In the case of `CCN1CCN(C2CCN(C(=O)NCCC3CCN(Cc4ccccc4)CC3)CC2)CC1` [8-37, N-[2-(1-benzylpiperidin-4-yl)ethyl]-4-(4-ethylpiperazin-1-yl)piperidine-1-carboxamide], the inhibition constant Ki fell in the range of 100 to 1000 nM.

In the case of `Cc1cc(Cl)c(-c2cc(C(=O)NCC[C@@H]3CCN(Cc4ccccc4)C3)ccc2Cl)cn1` [9-20, N-{2-[(3R)-1-benzylpyrrolidin-3-yl]ethyl}-4-chloro-3-(4-chloro-6-methylpyridin-3-yl)benzamide], the Ki lay in the range of 100 to 1000 nM.

For the compound `CC1(C(=O)NCCC2CCN(Cc3ccccc3)CC2)CCN(c2ccc(OC(F)(F)F)cc2)CC1` [10-31, N-[2-(1-benzylpiperidin-4-yl)ethyl]-4-methyl-1-[4-(trifluoromethoxy)phenyl]piperidine-4-carboxamide], the Ki was in the range of 10 to 100 nM.

As to `CCN(C)C(=O)c1cnc(N2CCN(C(=O)NCCC3CCN(Cc4ccccc4)CC3)[C@H](C)C2)nc1` [27-9], the inhibition constant (Ki) fell in the range of 100 to 1000 nM.

Regarding `C[C@@H]1CN(c2ncc(C#N)cn2)C[C@H](C)N1C(=O)NCCC1CCN(Cc2ccccn2)CC1` [21-3], the Ki fell in the range of 100 to 1000 nM.

Turning to `C[C@@H]1CN(c2cc(F)c(F)c(F)c2)CCN1C(=O)NCCC1CCN(Cc2ccc(OC(F)(F)F)cc2)CC1` [6-24, (2R)-2-methyl-N-[2-(1-{[4-(trifluoromethoxy)phenyl]methyl}piperidin-4-yl)ethyl]-4-(3,4,5-trifluorophenyl)piperazine-1-carboxamide], the Ki lay in the range of 100 to 1000 nM.

Turning to `C[C@@H]1CN(c2ncc(C(F)(F)F)cn2)CCN1C(=O)NCCC1CCN(Cc2cncnc2)CC1` [6-39, (2R)-2-methyl-N-{2-[1-(pyrimidin-5-ylmethyl)piperidin-4-yl]ethyl}-4-[5-(trifluoromethyl)pyrimidin-2-yl]piperazine-1-carboxamide], the Ki lay in the range of 100 to 1000 nM.

Regarding `Cc1c(C(=O)NCCC2CCN(Cc3ccccc3)CC2)cnc2cc(-c3ccnc(F)c3)nn12` [18-20], the Ki was in the range of 10 to 100 nM.

A word on the Ki: it is the equilibrium dissociation constant of an inhibitor or competing ligand from its target.
